Results from patent publication US20110098180A1, “Herbicide-Resistant Plants, And Polynucleotides And Methods For Providing Same” (United States Department of Agriculture, priority 2002, published 2011).

Columns and labels:
Assay in all cases: Fluridone enzyme inhibition assay, non-His-tagged PDS (Table 1)
Assay type in all cases: biochemical, Hydrilla verticillata
Details in all cases: relative to Arginine
[1] = tested on: Hydrilla PDS Arg^304 → Glycine
Method: (§1) The expression constructs in Table 1 were derived from an original clone of the susceptible PDS gene from Hydrilla and then the Arg^304 was mutated to the listed amino acid. Expression was under the control of the lac promoter […] with the initiation codon of the LacZalpha-ccdB gene in the pCR4-TOPO vector (Invitrogen Inc., CA, Cat. #K4575-01).
(§2) All mutagenesis was performed, unless stated otherwise, using the TOPO-vector containing the wildtype (H4) PDS-sequence, which was extracted from an overnight culture with the Qiagen Plasmid Prep Kit as described above. The amount of the extracted plasmid was diluted to 10 ng/μl and used as template in a mutagenesis-procedure using the QuikChange Site-directed Mutagenesis Kit (Stratagene, Calif., #200518). The design of the mutagenesis-primers was conducted according to the manufacturers protocol to enable the specific change of Arg^304-codon to code for the desired amino acid. Primers (purchased from MWG-Biotech) and their introduced amino acid change are listed below with the changed codon underlined:
(§3) The reactions were performed according to the manufacturers protocol. Reactions were set up in MicroAmp-tubes on ice with 38 μl ddH2O, 5 μl 10× reaction buffer, 2 μl plasmid (10 ng/μl), 1.25 μl forward-mutagenesis primer (100 ng/μl), 1.25 μl of reverse mutagenesis primer (100 ng/μl), 1 μl dNTP-mix and 1 μl PfuTurboDNA polymerase (2.5 U/μl). The reactions were placed in a PE 9700 thermal cycler and heated to 95° C. for 30 sec followed by 12 rounds at 95° C. for 30 sec, 55° C. for 1 min and 68° C. for 12 min. The PCR was followed by a DpnI-digestion and transformation in XL1-Blue supercompetent cells as described in the manual. 4-6 resulting colonies were grown overnight in LB-medium with kanamycin and plasmid DNA was isolated as described above. The plasmid was used as template for sequencing with M13 and internal PDS-primers as described above on a LiCOR-system. Sequences were assembled and analyzed using Seqman. Introduced mutations were identified and plasmids carrying the desired mutation(s) were transferred into competent TOP10-cells, using the transformation protocol from the TOPO TA Cloning Kit. Resulting colonies were grown overnight in Wu-broth with kanamycin, aliquoted and stored at −80° C. until further use. 1 ml of Wu-cultures was used to start 1-L LB-cultures with kanamycin as described before, to express active PDS-enzyme for testing as described.
(§4) Phytoene desaturase activity and its inhibition by herbicides was determined using an in vitro system using components derived from the in vivo production of phytoene and phytoene desaturase proteins. All mutations described in Examples 3 and 4 were tested. […] The clones were used for the heterologous expression of Hydrilla-PDS-enzyme. In particular, bacterial cultures were grown from single colonies overnight in Wu-broth (6.27 g/L K2HPO4, 1.8 g/L KH2PO4, 0.5 g/L Na-citrate, 0.9 g/L (NH4)2SO4, 10 g/L tryptone, 5 g/L yeast extract, 10 g/L NaCl, 44 ml/L glycerol, 0.1 mM MgSO4, pH 7.2) with kanamycin. 1-mL was aliquoted in centrifuge tube and stored at −80° C. For expression, 1 L LB-medium with kanamycin was inoculated with 1-mL Wu-culture and grown for 24 h at 37° C. to stationary phase with shaking at 200 rpm. The cells were collected by centrifugation at 2000×g. All of the following steps were done at 4° C. unless otherwise noted. Active soluble PDS enzyme was extracted by lysing the transformed E. coli cells using a French Press at 20,000 psi in assay buffer consisting of 100 mM Tris-HCl, pH 7.2, 10 mM magnesium-chloride, 0.1 mM NADP, 0.1 mM FAD, 10 mM cysteine, 5 mM DTT, 1 mM aminocaproic acid, and 1 μg/ml leupeptin. The soluble fraction containing PDS activity was obtained by centrifugation for 10 min at 1200×g. After 24 h they were centrifuged down and used in PDS enzyme activity assays as described below.

[2] = tested on: Hydrilla PDS Arg^304 → Glutamic acid
Method: as §1, §2, §3, §4

[3] = tested on: Hydrilla PDS Arg^304 → Lysine
Method: as §1, §2, §3, §4

[4] = tested on: Hydrilla PDS Arg^304 → Methionine
Method: as §1, §2, §3, §4

[5] = tested on: Hydrilla PDS Arg^304 → Valine
Method: as §1, §2, §3, §4

[6] = tested on: Hydrilla PDS Arg^304 → Phenyalanine
Method: as §1, §2, §3, §4

[7] = tested on: Hydrilla PDS Arg^304 → Tyrosine
Method: as §1, §2, §3, §4

[8] = tested on: Hydrilla PDS Arg^304 → Asparagine
Method: as §1, §2, §3, §4

[9] = tested on: Hydrilla PDS Arg^304 → Aspartic acid
Method: as §1, §2, §3, §4

[10] = tested on: Hydrilla PDS Arg^304 → Isoleucine
Method: as §1, §2, §3, §4

[11] = tested on: Hydrilla PDS Arg^304 → Alanine
Method: as §1, §2, §3, §4

[12] = tested on: Hydrilla PDS Arg^304 → Glutamine
Method: as §1, §2, §3, §4

[13] = tested on: Hydrilla PDS Arg^304 → Threonine
Method: as §1, §2, §3, §4

Fluridone
R/S [1]: 3.2
R/S [2]: 1.5
R/S [3]: 5
R/S [4]: 11.5
R/S [5]: 11
R/S [6]: 2.6
R/S [7]: 4
R/S [8]: 3.2
R/S [9]: 10
R/S [10]: 10
R/S [11]: 22.5
R/S [12]: 19
R/S [13]: 40
